Assay results as given in US20150290160A1, “Spermidine/Spermine N1-Acetyltransferase Substrates As Anti-Cancer Drug Compounds” (BIOMARK TECHNOLOGIES INC., priority 2012, published 2015).
Where two headings read alike, the source gives them in different places.

Columns and labels:
[1] = tested on: human cancer cell lines (A549, H322, NCI-H23, MCF-7, T-47D, BT-549, LNCaP, PC-3, Du-145, U2-OS); experiment: MTT cytotoxicity assay, across all cell lines evaluated; format: cell-based; details: 72 h, across all the cell lines evaluated, three day incubation, read-out: IC50 (cytotoxicity), range across cell lines
From the text: Three cell lines from each of lung, breast and prostate cancers have been selected based on literature SSAT expression data and used for potential cytotoxicity screening in the MTT assay. The SSAT non-expressing human osteosarcoma cell line U2-OS was used as the negative control cell line.

[2] = tested on: SSAT over-expressing cell lines (Malme-M3 and PC-3); experiment: Percent confluency during incubation with spermidine, SSAT over-expressing cell lines; format: cell-based, human; details: spermidine from 22 μM to 550 μM; compared among U2-OS, HeLa, Malme-3M, PC-3, HEK293
[3] = tested on: SSAT non-expressing cell lines (U2-OS and HeLa); experiment: Percent confluency during incubation with spermidine, SSAT non-expressing cell lines; format: cell-based, human; details: spermidine from 22 μM to 550 μM, compared among U2-OS, Malme-3M, PC-3, HEK293
[4] = tested on: U2-OS osteosarcoma cell line (negative control, SSAT non-expressing); experiment: MTT cytotoxicity assay, U2-OS; format: cell-based, human; details: for IC50 values (in words): does not express SSAT
Procedure: (§1) Each human cancer cell line was incubated with each of the four monoamine test drugs at a range of testing concentrations. Cytotoxicity expressed as half maximal inhibitory concentration or IC50 was determined based on a (dimethyl-2-thiazolyl)-2,5-diphenyl-2H-tetrazolium bromide or MTT assay. In parallel, the expression levels of SSAT in these cell lines were measured using a RT-qPCR assay.
Cells of the ten cell lines were harvested from their established adherent cultures with trypsin EDTA, pelleted by centrifugation, and resuspended in the appropriate medium to yield a suspension of cells for each cell line.
Each of the monoamine test drugs (amantadine, rimantadine, dopamine and L-DOPA) and the positive control (spermidine) was accurately weighed, dissolved and further diluted with sterile water into a series of solutions at 100× of their target incubation concentrations. The target incubation concentrations for amantadine, rimantadine, and dopamine were 0.03, 0.1, 0.3, 1, 3, 10, 30, 100, 300 and 1000 μM. The target incubation concentrations for L-DOPA and the positive control, spermidine, were 0.1, 0.3, 1, 3, 10, 30, 100, 300 and 1000 μM.
Incubation was performed in triplicate at each drug concentration for each cell line tested. […]
(§2) After three days of incubation with substrates, an aliquot of 5 mg/mL MTT was added to each well and then incubated for 1 to 3 hours. […] An aliquot from each well was measured for absorbance at 550 nm or 555 nm on a 96-well flat bottom plate with a microplate reader and DMSO for background absorbance correction.
(§3) Cytotoxicity was determined based on treating each cell line with each of the test drugs over a range of concentrations. Following a three day incubation period cytotoxicity was measured by an MTT assay. IC50 values were deduced based on plots of cytotoxicity level expressed as percentage inhibition over the testing concentrations as shown in FIGS. 5 to 14. In parallel to each drug treatment, each cell line was also treated with spermidine as a positive control and the IC50 value for spermidine was determined for comparison.

T-47D = experiment: MTT cytotoxicity assay, T-47D
Procedure: as §1
(§4) Cells of the ten cell lines were harvested from their established adherent cultures with trypsin EDTA, pelleted by centrifugation, and resuspended in the appropriate medium to yield a suspension of cells for each cell line. […]
as §2
as §3, with “In parallel to each drug treatment, each cell line was also treated with spermidine as a positive control and the IC50 value for spermidine was determined for comparison.” left out

NCI-H23 (lung cancer) = experiment: MTT cytotoxicity assay, NCI-H23; format: cell-based; details: Homo sapiens, 72 h, NCI-H23, three day incubation
Procedure: as §1, §4, §2
as §3, with “In parallel to each drug treatment, each cell line was also treated with spermidine as a positive control and the IC50 value for spermidine was determined for comparison.” left out

[5] = tested on: breast cancer cell line BT-549; experiment: cells; details: Homo sapiens, BT-549, 72 h, read-out: IC50 (cytotoxicity)
Procedure: as §1, §4, §2
as §3, with “In parallel to each drug treatment, each cell line was also treated with spermidine as a positive control and the IC50 value for spermidine was determined for comparison.” left out

LNCaP = experiment: MTT cytotoxicity assay, LNCaP
Procedure: as §1, §4, §2
as §3, with “In parallel to each drug treatment, each cell line was also treated with spermidine as a positive control and the IC50 value for spermidine was determined for comparison.” left out

NCCCCNCCCN [spermidine, Spermidine]
IC50 [1]: 3.72 to 32.7 µM
relative cell viability, expressed as percent confluency [2]: lowest
relative cell viability, expressed as percent confluency [3]: highest

N[C@@H](Cc1ccc(O)c(O)c1)C(=O)O [L-DOPA]
IC50 values (in words) [4]: low IC50 values

NC12CC3CC(CC(C3)C1)C2 [amantadine, Amantadine]
cytotoxicity (in words) (T-47D; T-47D, over-expresses SSAT (>2 fold change)): high cytotoxicity
IC50 (NCI-H23 (lung cancer)): 1600 µM
IC50 [5]: 1160 µM
cytotoxicity (in words) (LNCaP; LNCaP, over-expresses SSAT (>5-fold change)): high cytotoxicity

CC(N)C12CC3CC(CC(C3)C1)C2 (stereo not shown) [rimantadine, Rimantadine]
cytotoxicity (in words) (T-47D): high cytotoxicity
cytotoxicity (in words) (LNCaP): high cytotoxicity

NCCc1ccc(O)c(O)c1 [dopamine, Dopamine]
IC50 ([4]; Homo sapiens, U2OS, 72 h, three day incubation, MTT): 34.1 µM
IC50 values (in words) [4]: low IC50 values
IC50 [5]: 52 µM
